Measured values from paper PMC9658513, “Discovery of Compounds That Selectively Repress the Amyloidogenic Processing of the Amyloid Precursor Protein: Design, Synthesis and Pharmacological Evaluation of Diphenylpyrazoles” (International Journal of Molecular Sciences, 2022).

What was measured:
LC3 = assay: Autophagic flux: LC3-I lipidation into LC3-II by Western blot; type: cell-based; settings: Homo sapiens, 24 h, compound at 3 µM, SY5Y-APP^wt cells, vs control
From the text: (§1) Previous work dedicated to compounds of family C [22] has underlined the effect of our compounds on autophagic flux and the lysosomal degradation pathways. More precisely, the role of the amino side chains and their number was highlighted. Therefore, we assessed whether the activity of compounds involved the modulation of lysosomal activities toward the accumulation of APP-CTFs and AICD. Thus, we studied the effect of a selection of compounds on the autophagic flux, more particularly, we evaluated the effect of compounds 24, 33, 34, 57, 65, 67, 70, and 71 on two markers associated with autophagy: p62 and LC3-I lipidation into LC3-II. To the previous selection of efficient compounds decreasing Aβ1–x production and increasing CTFα and AICD, we added compound 65 with no cytotoxicity at 100 µM. As a comparison, we also selected compound 57 with a hydroxymethyl substituent as a control. In addition to CQ, bafilomycin A, a well-known inhibitor of autophagic flux, was used as a control. Treatment with compounds 67 and 71 induced an increase in p62 expression by 2.5 and 4-fold, respectively, compared to the control condition (Figure 3). […] An increase in the two markers was also observed with compound 57, but to a smaller extent (1.7-fold for p62 and 2-fold for LC3-I/LC3-II).
(§2) The human neuroblastoma cell line SY5Y-APP^695WT was maintained in Dulbecco’s modified Eagle medium (DMEM, high glucose, pyruvate—GIBCO, Life Technologies, Carlsbad, CA, USA) supplemented with 10% fetal bovine serum, 2 mM L-glutamine, 1 mM non-essential amino acids and penicillin/streptomycin (GIBCO, Life Technologies, Carlsbad, CA, USA) at 37 °C in a 5% CO2 humidified incubator [36]. For compound treatment, a 10 mM stock solution was diluted in freshly supplemented DMEM medium to obtain the precise final concentration of the drug. Cells were plated at a density of 5 × 10^5 cells per well into 12-well plates and cultured with 1 mL supplemented DMEM cell medium for 24 h before compound exposure. The following day, the cell medium was replaced with fresh medium containing the compounds diluted at the indicated concentrations. Cells were treated for 24 h. At the end of the treatments, the cell medium was collected and kept at −80 °C until use, cells were rinsed once with PBS and extracted in 100 µL of Laemmli buffer (10 mM Tris, 20% glycerol, and 2% sodium dodecyl sulfate) using a cell-scraper. The cell lysate was further sonicated (30 pulses of 0.5 s, 60 Hz) for 5 min. Total protein concentration was determined using the Pierce BCA Protein Assay Kit (Thermo Scientific, Waltham, MA, USA) according to the manufacturer’s instructions. Samples were stored at −80 °C until analysis.
(§3) Cell protein lysates were prepared for Western blot analysis by diluting the sample with 1 volume of NuPAGE® lithium dodecyl sulfate (LDS) 2X sample buffer supplemented with 20% NuPAGE® sample reducing agents (Invitrogen). Samples were heated for 10 min at 100 °C. Ten µg of total proteins per well were loaded onto precast 4–12% Criterion XT Bis-Tris polyacrylamide gels (Bio-Rad) and electrophoresis was achieved after applying a tension of 150 V for 90 min using a Criterion electrophoresis cell with the NuPAGE® MOPS SDS running buffer (1X). Proteins were transferred to a nitrocellulose membrane of […] pore size (G&E Healthcare, Madison, WI, USA) using the Criterion blotting system and applying a tension of 100 V for 45 min. To resolve proteins of low molecular weights such as carboxy-terminal fragments of APP, 12% Criterion XT Bis-Tris polyacrylamide gels (Bio-Rad, Hercules, CA, USA) were used, and electrophoresis was performed for 70 min at 150 V in a NuPAGE® MES SDS running buffer (1X). Proteins were transferred to a nitrocellulose membrane of 0.2 µm pore size (G&E Healthcare, Madison, WI, USA) at 100 V for 40 min. Molecular weight calibration was achieved using molecular weight markers (Novex and Magic Marks, Life Technologies, Carlsbad, CA, USA). […]

p62 = assay: Autophagic flux: p62 expression by Western blot; type: cell-based, human; settings: 24 h, compound at 3 µM, SY5Y-APP^wt cells, vs control; for fold induction at 3 µM: Homo sapiens
From the text: as §1, §2, §3

sAPPβ secretion = sAPPβ secretion (MSD sAPPα/sAPPβ Multiplex Kit); type: cell-based, human; settings: SY5Y cells, mean ± SD of at least three experiments in triplicate
Protocol: (§4) A selection of compounds with several selected activities was performed including sAPPα and sAPPβ, which were further explored. […] The decrease in Aβ could result from a decrease in either β- or γ-secretase cleavage or an increase in the α-secretase cleavage of APP. Thus, medium concentrations of sAPPβ and sAPPα, which are the β- and α-secretase extramembrane shed APP fragments, were determined after cell drug treatments.
as §2
Conditioned media of SY5Y-APP^695WT collected at the end of treatments were centrifuged at 1000× g for 5 min to eliminate cell debris.
(§5) Aβ1–40/Aβ1–42 peptides, Aβx–38/Aβx–40/Aβx–42, and sAPPα/sAPPβ concentrations in pg/mL were determined, respectively, using amyloid-beta 40 and 42 Human ELISA Kits (Invitrogen), the V-PLEX Plus Aβ Peptide Panel 1 (4G8) Kit (Meso Scale Diagnostics, MSD R©, Rockville, MD, USA), and the sAPPα/sAPPβ Multiplex Kit (Meso Scale Diagnostics, MSD R©, Rockville, MD, USA) according to the manufacturer’s instructions.

SY5Y-APP^695WT cells = assay: in vitro; type: cell-based, human
Method in brief: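 Cells seeded at 3 × 10^4 per well, attached 24 h, then exposed to drug for 72 h in DMEM with 10% SVF. Viability by MTS colorimetric assay, absorbance at 490 nm.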

sAPPα = sAPPα secretion (MSD sAPPα/sAPPβ Multiplex Kit); type: cell-based, human; settings: concentration increasing sAPPα 1.5-fold vs untreated control
Protocol: as §4
as §2, with “The cell lysate was further sonicated (30 pulses of 0.5 s, 60 Hz) for 5 min.” left out, “Samples were stored at −80 °C until analysis.” left out
as §5

Compound | fold induction at 3 µM (LC3) | fold induction at 3 µM (p62) | other results
CN(C)CCCc1ccc(-c2nn(-c3ccc(CN(C)C)cc3)cc2CN(C)C)cc1 [Compound 24, 3-[4-[4-(Dimethylaminomethyl)-1-[4-(dimethylaminomethyl)phenyl] Pyrazol-3-yl]phenyl]-N,N-dimethyl-propan-1-amine] | 3.3 | 1.64 | –
Cc1cn(-c2cccc(CO)c2)nc1-c1ccc(CN(C)CCCN(C)C)cc1 [Compound 57, (3-{3-[4-({[3-(Dimethylamino)propyl](methyl)amino}methyl)phenyl]-4-methyl-1H-pyrazol-1-yl}phenyl)methanol] | 2 | 1.7 | –
Cc1cn(-c2cccc(CN3CCN(C)CC3)c2)nc1-c1cccc(CN(C)C)c1 [Compound 65, N,N-dimethyl-1-[3-[4-methyl-1-[3-[(4-methylpiperazin-1-yl)methyl]phenyl]pyrazol-3-yl]phenyl]methanamine] | 2.63 | 1.64 | –
Cc1cn(-c2cccc(CN(C)C)c2)nc1-c1ccc(CN(C)CCCN(C)C)cc1 [Compound 67, {[4-(1-{3-[(Dimethylamino)methyl]phenyl}-4-methyl-1H-pyrazol-3-yl)phenyl]methyl} [3-(Dimethylamino)propyl]methylamine] | 5.2 | 2.5 | IC50 (sAPPβ secretion; Homo sapiens): 3.2 ± 1.4 µM
Cc1cn(-c2cccc(CN(C)C)c2)nc1-c1cccc(CN(C)CCCN(C)C)c1 [Compound 70, N′-[[3-[1-[3-(Dimethylaminomethyl)phenyl]-4-methyl-pyrazol-3-yl]phenyl] Methyl]-N,N,N′-trimethyl-propane-1,3-diamine] | 6 | 3 | –
Cc1cn(-c2cccc(CN3CCN(C)CC3)c2)nc1-c1cccc(CN(C)CCCN(C)C)c1 [Compound 71, N,N,N′-Trimethyl-N′-[[3-[4-methyl-1-[3-[(4-methylpiperazin-1-yl)methyl]phenyl]pyrazol-3-yl]phenyl]methyl]propane-1,3-diamine] | 6.5 | 4 | IC50 (sAPPβ secretion; Homo sapiens): 4 ± 0.4 µM
N′-[[4-[4-[3-(Dimethylamino)propyl]-3-[4-[3-(dimethylamino)propyl]phenyl] Pyrazol-1-yl]phenyl]methyl]-N,N,N′-trimethyl-propane-1,3-diamine [Compound 33] | – | – | IC50 (sAPPβ secretion): 6.8 ± 0.3 µM; CC50 (SY5Y-APP^695WT cells): > 100 µM; Cytotox. CC50 (SY5Y-APP^695WT cells): 100 µM; sAPPα C1.5 (sAPPα): >10 µM; p62 (p62): 1.04 Fold-change
